Data on 34 compounds can be found in patent US20120070411A1, “SUBSTITUTED NUCLEOTIDE ANALOGS” (Alios BioPharma, Inc., priority 2010, published 2012).

Experiment [1] concerns Huh-7 cells containing the self-replicating, subgenomic HCV replicon. The experiment is described as follows: HCV replicon assay (luciferase reporter, 72 h). The class given is cell-based. The note with it: read-out: HCV Replicon Activity (EC50). As for the experimental part: Huh-7 cells containing the self-replicating, subgenomic HCV replicon with a stable luciferase (LUC) reporter were cultured in Dulbecco's modified Eagle's medium (DMEM) containing 2 mM L-glutamine and supplemented with 10% heat-inactivated fetal bovine serum (FBS), 1% penicillin-streptomyocin, 1% nonessential amino acids, and 0.5 mg/ml G418.
On the first day, 5,000 HCV replicon cells were plated per well in a 96-well plate. On the following day, test compounds were solubilized in 100% DMSO to 100× the desired final testing concentration. Each compound was then serially diluted (1:3) up to 9 different concentrations. Compounds in 100% DMSO are reduced to 10% DMSO by diluting 1:10 in cell culture media. The compounds were diluted to 10% DMSO with cell culture media, which were used to dose the HCV replicon cells in 96-well format. The final DMSO concentration was 1%. The HCV replicon cells were incubated at 37° C. for 72 hours. At 72 hours, cells were processed when the cells are still subconfluent. Compounds that reduce the LUC signal are determined by Bright-Glo Luciferase Assay (Promega, Madison, Wis.). % Inhibition was determined for each compound concentration in relation to the control cells (untreated HCV replicon) to calculate the EC50.
(Replicon systems follow genome replication, usually without infectious particles.)

Experiment [2] has as its system HCV genotype 1b HCV replicon harbored in Huh7 cells. Nature of the experiment: Combination testing with compound A10 in HCV replicon (CalcuSyn CI and MacSynergy II synergy volume). The note with it: combination of compound A10 with the listed compound; MacSynergy II, Bliss independence; 25-100 synergistic, >100 strongly synergistic. Format: cell-based. As for the experimental part: Two or more test compounds were tested in combination with each other using an HCV genotype 1b HCV replicon harbored in Huh7 cells with a stable luciferase (LUC) reporter. Cells were cultured under standard conditions in Dulbecco's modified Eagle's medium (DMEM; Mediatech Inc, Herndon, Va.) containing 10% heat-inactivated fetal bovine serum (FBS; Mediatech Inc, Herndon, Va.) 2 mM L-glutamine, and nonessential amino acids (JRH Biosciences). HCV replicon cells were plated in a 96-well plate at a density of 10^4 cells per well in DMEM with 10% FBS. […] The cells were incubated with no compound as a control, with the test compounds, or the combination of compounds for 72 h. The direct effects of the combination of the test compounds were examined using a luciferase (LUC) based reporter as determined by the Bright-Glo Luciferase Assay (Promega, Madison, Wis.). Dose-response curves were determined for individual compounds and fixed ratio combinations of two or more test compounds.
The effects of test compound combinations were evaluated by two separate methods. In the Loewe additivity model, the experimental replicon data was analyzed by using CalcuSyn (Biosoft, Ferguson, Mo.), a computer program based on the method of Chou and Talalay. The program uses the experimental data to calculate a combination index (CI) value for each experimental combination tested. A CI value of <1 indicates a synergistic effect, a CI value of 1 indicates an additive effect, and a CI value of >1 indicates an antagonistic effect.
The second method utilized for evaluating combination effects used a program called MacSynergy II. MacSynergy II software was kindly provided by Dr. M. Prichard (University of Michigan). The Prichard Model allows for a three-dimensional examination of drug interactions and a calculation of the synergy volume (units: μM^2%) generated from running the replicon assay using a checkerboard combination of two or more inhibitors. The volumes of synergy (positive volumes) or antagonism (negative volumes) represent the relative quantity of synergism or antagonism per change in the concentrations of the two drugs. Synergy and antagonism volumes are defined based on the Bliss independence model. In this model, synergy volumes of less than −25 indicate antagonistic interactions, volumes in the −25-25 range indicate additive behavior, volumes in the 25-100 range indicate synergistic behavior and volumes>100 indicate strong synergistic behavior.

Read-outs that look alike come from different tables or passages of the source.

In the case of `CC(C)OC(=O)[C@H](C)NP(=O)(Oc1ccccc1)O[C@H]([C@H]1O[C@@H](n2cnc3c(N)ncnc32)[C@H](O)[C@@H]1O)C(F)(F)F` (stereo partly drawn) [A26, 5′(S)—C-trifluoromethyladenosine 5′-[phenyl(isopropoxy-L-alaninyl)]phosphate], in experiment [1] (Hepatitis C virus, Huh-7, 72 h), the EC50 (in general, the concentration needed to bring the measured effect to its halfway point) is < 100 µM. As for `CC(C)OC(=O)[C@H](C)NP(=O)(Oc1ccccc1)O[C@@H]([C@H]1O[C@@H](n2cnc3c(N)ncnc32)[C@H](O)[C@@H]1O)C(F)(F)F` (stereo partly drawn) [A27, 5′(R)—C-trifluoromethyladenosine 5′-[phenyl(isopropoxy-L-alaninyl)]phosphate], the EC50 in experiment [1] (Hepatitis C virus, Huh-7, 72 h) is < 30 µM. With `CC(NP(=O)(Oc1ccccc1Cl)OC(C)C1OC(n2cnc3c(N)ncnc32)[C@H](O)[C@@H]1O)C(=O)OC1CCCCC1` (stereo partly drawn) [A28, 5′(S)—C-methyladenosine 5′-[2-chlorophenyl(cyclohexoxy-L-alaninyl)]phosphate], the EC50 in experiment [1] (Hepatitis C virus, Huh-7, 72 h) is < 1 µM. On the same count and under the same terms, then `C[C@H](NP(=O)(Oc1ccc(F)c(Cl)c1)O[C@@H](C)[C@H]1O[C@@H](n2cnc3c(N)ncnc32)[C@H](O)[C@@H]1O)C(=O)OC1CCCCC1` (stereo partly shown) [A29], with < 1 µM; and `Cc1ccc(OP(=O)(N[C@@H](C)C(=O)OC2CCCCC2)O[C@@H](C)[C@H]2O[C@@H](n3cnc4c(N)ncnc43)[C@H](O)[C@@H]2O)cc1` (stereo partly shown) [A30], with < 1 µM; and `C[C@H](NP(=O)(Oc1ccc(Cl)cc1)O[C@@H](C)[C@H]1O[C@@H](n2cnc3c(N)ncnc32)[C@H](O)[C@@H]1O)C(=O)OC1CCCCC1` (stereo partly shown) [A32], with < 1 µM. Regarding `COc1ccc(OP(=O)(N[C@@H](C)C(=O)OC2CCCCC2)O[C@@H](C)[C@H]2O[C@@H](n3cnc4c(N)ncnc43)[C@H](O)[C@@H]2O)cc1` (stereo partly shown) [A33], in experiment [1] (Hepatitis C virus, Huh-7, 72 h), the EC50 was < 1 µM.

On to `CC[C@H](NP(=O)(Oc1ccccc1)O[C@@H](C)[C@H]1O[C@@H](n2cnc3c(N)ncnc32)[C@H](O)[C@@H]1O)C(=O)OC1CCCCC1` (stereo partly shown) [A34], for which the EC50 in experiment [1] (Hepatitis C virus, Huh-7, 72 h) is < 1 µM. On to `C[C@H](NP(=O)(Oc1cccnc1)O[C@@H](C)[C@H]1O[C@@H](n2cnc3c(N)ncnc32)[C@H](O)[C@@H]1O)C(=O)OC1CCCCC1` (stereo partly shown) [A36], for which the EC50 in experiment [1] (Hepatitis C virus, Huh-7, 72 h) was < 30 µM. In the case of `Cc1ccccc1OP(=O)(N[C@@H](C)C(=O)OC1CCCCC1)O[C@@H](C)[C@H]1O[C@@H](n2cnc3c(N)ncnc32)[C@H](O)[C@@H]1O` (stereo partly shown) [A37], in experiment [1] (Hepatitis C virus, Huh-7, 72 h), the EC50 is < 1 µM. The same measure, in the same setting: then `CCC[C@H](NP(=O)(Oc1ccccc1)O[C@@H](C)[C@H]1O[C@@H](n2cnc3c(N)ncnc32)[C@H](O)[C@@H]1O)C(=O)OC1CCCCC1` (stereo partly shown) [A38], with < 1 µM; and `CC(C)[C@H](NP(=O)(Oc1ccccc1)O[C@@H](C)[C@H]1O[C@@H](n2cnc3c(N)ncnc32)[C@H](O)[C@@H]1O)C(=O)OC1CCCCC1` (stereo partly shown) [A39], with < 1 µM. `CC(C)C[C@H](NP(=O)(Oc1ccccc1)O[C@@H](C)[C@H]1O[C@@H](n2cnc3c(N)ncnc32)[C@H](O)[C@@H]1O)C(=O)OC1CCCCC1` (stereo partly shown) [A40]: in experiment [1] (Hepatitis C virus, Huh-7, 72 h), the EC50 was < 1 µM.

As for `CSCC[C@H](NP(=O)(Oc1ccccc1)O[C@@H](C)[C@H]1O[C@@H](n2cnc3c(N)ncnc32)[C@H](O)[C@@H]1O)C(=O)OC1CCCCC1` (stereo partly shown) [A41], the EC50 in experiment [1] (Hepatitis C virus, Huh-7, 72 h) is < 1 µM. In the case of `C[C@H](OP(=O)(N[C@@H](Cc1ccccc1)C(=O)OC1CCCCC1)Oc1ccccc1)[C@H]1O[C@@H](n2cnc3c(N)ncnc32)[C@H](O)[C@@H]1O` (stereo partly shown) [A42], in experiment [1] (Hepatitis C virus, Huh-7, 72 h), the EC50 was < 30 µM. On the same count and under the same terms, as for `C[C@H](OP(=O)(NCC(=O)OC1CCCCC1)Oc1ccccc1)[C@H]1O[C@@H](n2cnc3c(N)ncnc32)[C@H](O)[C@@H]1O` (stereo partly shown) [A43], the figure is < 1 µM.

Turning to `COc1ccc2c(O[C@@H]3C[C@H]4C(=O)N[C@]5(C(=O)O)C[C@H]5/C=C\CCCCC[C@H](NC(=O)OC5CCCC5)C(=O)N4C3)cc(-c3csc(NC(C)C)n3)nc2c1` [BILN-2061], in experiment [2], the “Synergy Volume” value was 12 μM^2%.

On to `COC(=O)N[C@H](C(=O)N1CCC[C@H]1c1nc(-c2ccc(-c3ccc(-c4c[nH]c([C@@H]5CCCN5C(=O)[C@@H](NC(=O)OC)C(C)C)n4)cc3)cc2)c[nH]1)C(C)C` [BMS-790052], for which, in experiment [2], the “Synergy Volume” value is recorded as 25 μM^2%. With `CC(C)OC(=O)[C@H](C)NP(=O)(Oc1cccc2ccccc12)O[C@@H](C)[C@H]1O[C@@H](n2ccc(N)nc2=O)[C@H](O)[C@@H]1O` (stereo partly drawn) [C2, 5′(S)—C-methylcytidine-[naphthyl(isopropoxy-L-alaninyl)]phosphate], in experiment [1] (Hepatitis C virus, Huh-7, 72 h), the EC50 was < 100 µM. In the case of `COC(=O)[C@H](C)NP(=O)(Oc1ccccc1)O[C@@H](C)[C@H]1O[C@@H](n2ccc(N)nc2=O)[C@H](O)[C@@H]1O` (stereo partly drawn) [C6, 5′(S)—C-Methylcytidine 5′-[phenyl(methoxy-L-alaninyl)]phosphate], the EC50 in experiment [1] (Hepatitis C virus, Huh-7, 72 h) was < 100 µM. With `CC(C)OC(=O)[C@H](C)NP(=O)(Oc1ccccc1)O[C@@H](C)[C@H]1O[C@@H](n2ccc(N)nc2=O)[C@H](O)[C@@H]1O` (stereo partly drawn) [C8, 5′(S)—C-methylcytidine 5′-[phenyl(isopropoxy-L-alaninyl)]phosphate], the EC50 in experiment [1] (Hepatitis C virus, Huh-7, 72 h) is < 100 µM.

As for `COC(=O)[C@H](C)NP(=O)(Oc1ccccc1)O[C@H](C)[C@H]1O[C@@H](n2ccc(=O)[nH]c2=O)[C@@H](O)[C@@H]1O` (stereo partly drawn) [D1, 5′(R)—C-methylarabinouridine 5′-[phenyl(methoxy-L-alaninyl)]phosphate], in experiment [1] (Hepatitis C virus, Huh-7, 72 h), the EC50 is < 1000 µM. As for `COC(=O)[C@H](C)NP(=O)(Oc1ccccc1)O[C@@H](C)[C@H]1O[C@@H](n2ccc(=O)[nH]c2=O)[C@@H](O)[C@@H]1O` (stereo partly drawn) [D2, 5′ (S)—C-methylarabinouridine 5′-[phenyl(methoxy-L-alaninyl)]phosphate], the EC50 in experiment [1] (Hepatitis C virus, Huh-7, 72 h) is < 1000 µM. For the compound `CC(C)OC(=O)[C@H](C)NP(=O)(Oc1ccccc1)O[C@@H](C)[C@H]1O[C@@H](n2cnc3c(N)nc(N)nc32)[C@H](O)[C@@H]1O` (stereo partly drawn) [E1, 1-(2,6-diaminopurin-9-yl)-5(S)—C-methyl-β-D-ribofuranose 5-[phenyl(isopropoxy-L-alaninyl)]phosphate], in experiment [1] (Hepatitis C virus, Huh-7, 72 h), the EC50 was < 30 µM.

As to `CCc1cc(CC[C@]2(C3CCCC3)CC(O)=C(Cc3nc4nc(C)cc(C)n4n3)C(=O)O2)cc(CC)n1` [Filibuvir, FILIBUVIR], the “Synergy Volume” value in experiment [2] was 38 μM^2%. As to `Fc1ccccc1-c1nc2ccn(Cc3ccc(-c4ccc(C(F)(F)F)cc4C(F)(F)F)nn3)cc-2n1` [GS-9190], the “Synergy Volume” value in experiment [2] was 112 μM^2%. In the case of `CNC(=O)c1c(-c2ccc(F)cc2)oc2cc(N(CCO)S(C)(=O)=O)c(C3CC3)cc12` [HCV-796], the “Synergy Volume” value in experiment [2] is listed as 35 μM^2%. Same read-out and setting: as for `COc1nc(N)nc2c1ncn2[C@@H]1O[C@H](COP(=O)(N[C@@H](C)C(=O)OCC(C)(C)C)Oc2cccc3ccccc23)[C@@H](O)[C@@]1(C)O` (stereo partly shown) [INX-189], the figure is 31 μM^2%. Same read-out and setting: then `CC(C)(C)OC(=O)N[C@H]1CCCCC/C=C\[C@@H]2C[C@@]2(C(=O)NS(=O)(=O)C2CC2)NC(=O)[C@@H]2C[C@@H](OC(=O)N3Cc4cccc(F)c4C3)CN2C1=O` [ITMN-191, DANOPREVIR], with 39 μM^2%; and `CCOc1nc(N)nc2c1ncn2[C@@H]1O[C@@H]2COP(=O)(OC(C)C)O[C@H]2[C@@]1(C)F` (stereo partly shown) [PSI-938], with 36 μM^2%; and `C[C@@]1(F)[C@H](O)[C@@H](CO)O[C@H]1n1ccc(N)nc1=O` [PSI-6130], with 21 μM^2%. Same read-out and setting: as for `CC(C)OC(=O)[C@H](C)NP(=O)(OC[C@H]1O[C@@H](n2ccc(=O)[nH]c2=O)[C@](C)(F)[C@@H]1O)Oc1ccccc1` (stereo partly shown) [PSI-7851], the figure is 14 μM^2%. Regarding `COC(=O)[C@@H](C)NP(=O)(Oc1ccccc1)O[C@@H](C)[C@H]1O[C@@H](n2cnc3c(N)ncnc32)[C@](C)(O)[C@@H]1O` (stereo partly shown) [drawing 355], the EC50 in experiment [1] (Hepatitis C virus, Huh-7, 72 h) was 30 to 200 µM. For `COC(=O)[C@@H](C)NP(=O)(Oc1ccccc1)O[C@@H](C)[C@H]1O[C@@H](n2cnc3c(N)ncnc32)[C@](C)(O)[C@@H]1O` (stereo partly shown) [drawing 364], in experiment [1] (Table 9, Huh-7 HCV replicon cells, luciferase, 72 hours), the EC50 fell in the range of 30 to 200 µM.
